Measured values as given in patent US10064913B2, “Immunotherapy against several tumors including gastrointestinal and gastric cancer” (IMMATICS BIOTECHNOLOGIES GMBH, priority 2010, dated 2018).

Assays:
[1] = test system: CD8+ T cells; experiment: In vitro immunogenicity of HLA-A*2402 restricted TUMAPs (aAPC priming of CD8+ T cells, multimer staining); type: cell-based, human; conditions: HLA-A*2402 peptides, CD8+ T cells of healthy HLA-A*24 donors, three stimulation cycles with pMHC/anti-CD28 beads; for Wells positive/evaluable [%]: at least 48 wells evaluable; for Donors positive/evaluable [%]: at least four donors evaluable
Description: (§1) In order to perform in vitro stimulations by artificial antigen presenting cells (aAPC) loaded with peptide-MHC complex (pMHC) and anti-CD28 antibody, we first isolated CD8 T cells from fresh HLA-A*24 leukapheresis products or from HLA-A*2 buffy coats of healthy donors obtained from the Blood Bank Tuebingen.
(§2) CD8 T cells were either directly enriched or PBMCs (peripheral blood mononuclear cells) were isolated first by using standard gradient separation medium (PAA, Colbe, Germany). Isolated CD8 lymphocytes or PBMCs were incubated until use in T-cell medium (TCM) consisting of RPMI-Glutamax (Invitrogen, Karlsruhe, Germany) supplemented with 10% heat inactivated human AB serum (PAN-Biotech, Aidenbach, Germany), 100 U/ml Penicillin/100 μg/ml Streptomycin (Cambrex, Cologne, Germany), 1 mM sodium pyruvate (CC Pro, Oberdorla, Germany), 20 μg/ml Gentamycin (Cambrex). […] Isolation of CD8+ lymphocytes was performed by positive selection using CD8 MicroBeads (Miltenyi Biotec, Bergisch-Gladbach, Germany).
(§3) 800.000 beads/200 μl were coated in 96-well plates in the presence of 600 ng biotin-anti-CD28 plus 200 ng relevant biotin-pMHC (high density beads). […] Half of the medium was then exchanged by fresh TCM supplemented with 80 U/ml IL-2 and incubation was continued for 3-4 days at 37° C. This stimulation cycle was performed for a total of three times.
(§4) In vitro priming of specific multimer+CD8+ lymphocytes was detected by appropriate gating and by comparing to negative control stimulations.

[2] = test system: CD8+ T cells; experiment: In vitro immunogenicity of HLA-A*0201 restricted TUMAPs (aAPC priming of CD8+ T cells, multimer staining); type: cell-based, human; conditions: HLA-A*0201 peptides, CD8+ T cells from HLA-A*2 buffy coats of healthy donors, three stimulation cycles
Description: as §1, §2, §3, §4

[3] = peptide included in vaccines IMA901 and IMA910, described in other applications by immatics; cited from earlier work

Row | Sequence | Wells positive/evaluable [%] [1] [%] | Donors positive/evaluable [%] [1] [%] | Donors positive/evaluable [%] [2] [%] | Wells positive/evaluable [%] [2] [%] | in vivo reactions [3]
1 | AYAIIKEEL (listed as Homo sapiens) [ATAD2-001] | 3 | 33 | – | – | –
2 | AYLVYTDRL (listed as Homo sapiens) [PPAP2C-001] | 29 | 83 | – | – | –
3 | AYPTVKFYF (listed as Homo sapiens) [DNAJC10-002] | 3 | 33 | – | – | –
4 | DYAYLREHF (listed as Homo sapiens) [ZNF598-001] | 17 | 83 | – | – | –
5 | DYTIGFGKF (listed as Homo sapiens) [ITGB4-001] | 20 | 67 | – | – | –
6 | FYISPVNKL (listed as Homo sapiens) [AVL9-001] | 31 | 100 | – | – | –
7 | FYQPKIQQF (listed as Homo sapiens) [FANCI-001] | 1 | 17 | – | – | –
8 | HYKPTPLYF (listed as Homo sapiens) [SMC4-001] | 10 | 73 | – | – | –
9 | IFSKIVSLF (listed as Homo sapiens) [EIF2S3-001] | 1 | 17 | – | – | –
10 | IYAPKLQEF (listed as Homo sapiens) [CCNE2-001] | 0 | 0 | – | – | –
11 | IYLEVIHNL (listed as Homo sapiens) [DNAJC10-001] | 15 | 50 | – | – | –
12 | IYNGKLFDLL (listed as Homo sapiens) [KIF2C-001] | 2 | 17 | – | – | –
13 | IYPDASLLI (listed as Homo sapiens) [CEA-010] | 3 | 40 | – | – | –
14 | KIFDEILVNA (listed as Homo sapiens) [TOP-001] | – | – | 40 | 10 | –
15 | KIQEILTQV (listed as Homo sapiens) [IGF2BP3-001] | – | – | 50 | 21 | –
16 | KYLTVKDYL (listed as Homo sapiens) [ATAD2-002] | 1 | 17 | – | – | –
17 | KYNDTFWKEF (listed as Homo sapiens) [HSP90B1-001] | 7 | 50 | – | – | –
18 | LYLENIDEF (listed as Homo sapiens) [POLD3-001] | 7 | 67 | – | – | –
19 | LYPEVFEKF (listed as Homo sapiens) [ATAD2-003] | 0 | 0 | – | – | –

Row | Sequence | Wells positive/evaluable [%] [1] [%] | Donors positive/evaluable [%] [1] [%] | Donors positive/evaluable [%] [2] [%] | Wells positive/evaluable [%] [2] [%] | in vivo reactions [3]
20 | LYQILQGIVF (listed as Homo sapiens) [CDC2-001] | 28 | 83 | – | – | –
21 | MYMTVSIIDRF (listed as Homo sapiens) [CCNB1-003] | 3 | 33 | – | – | –
22 | NYEETFPHI (listed as Homo sapiens) [MUC6-001] | 22 | 83 | – | – | –
23 | NYLLYVSNF (listed as Homo sapiens) [MST1R-001] | 13 | 50 | – | – | –
24 | NYLPFIMEL (listed as Homo sapiens) [UCHL5-001] | 12 | 75 | – | – | –
25 | QYASRFVQL (listed as Homo sapiens) [PLK4-001] | 5 | 60 | – | – | –
26 | QYIDKLNEL (listed as Homo sapiens) [CCDC88A-001] | 0 | 0 | – | – | –
27 | RFLSGIINF (listed as Homo sapiens) [NUF2-002] | 6 | 50 | – | – | –
28 | RYLEGTSCI (listed as Homo sapiens) [EPPK1-001] | 1 | 17 | – | – | –
29 | RYLPKGFLNQF (listed as Homo sapiens) [PTK2-001] | 4 | 17 | – | – | –
30 | RYLPQCSYF (listed as Homo sapiens) [CCND2-001] | 10 | 17 | – | – | –
31 | RYLWATVTI (listed as Homo sapiens) [ASPM-001] | 3 | 17 | – | – | –
32 | SYATLLHVL (listed as Homo sapiens) [GPR39-001] | 6 | 50 | – | – | –
33 | SYIDVLPEF (listed as Homo sapiens) [MET-006] | 21 | 67 | – | – | –
34 | SYIIDPLNL (listed as Homo sapiens) [PROM1-001] | 26 | 83 | – | – | –
35 | SYLELVKSL (listed as Homo sapiens) [SDHC-001] | 3 | 33 | – | – | –
36 | SYLQAANAL (listed as Homo sapiens) [COL6A3-001] | 0 | 0 | – | – | –
37 | SYNPLWLRI (listed as Homo sapiens) [ASPM-002] | 32 | 67 | – | – | –
38 | SYNVTSVLF (listed as Homo sapiens) [LCN2-001] | 1 | 17 | – | – | –

Row | Sequence | Wells positive/evaluable [%] [1] [%] | Donors positive/evaluable [%] [1] [%] | Donors positive/evaluable [%] [2] [%] | Wells positive/evaluable [%] [2] [%] | in vivo reactions [3]
39 | SYQKVIELF (listed as Homo sapiens) [PBK-001] | 0 | 0 | – | – | –
40 | TYGNLLDYL (listed as Homo sapiens) [ABL1-001] | 18 | 83 | – | – | –
41 | VFDTAIAHLF (listed as Homo sapiens) [SIAH2-001] | 8 | 50 | – | – | –
42 | VFIFKGNQF (listed as Homo sapiens) [MMP3-001] | 1 | 11 | – | – | –
43 | VWSDVTPLTF (listed as Homo sapiens) [MMP11-001] | 11 | 33 | – | – | –
44 | VYFSKSEQL (listed as Homo sapiens) [EPHA2-005] | 0 | 0 | – | – | –
45 | VYGIRLEHF (listed as Homo sapiens) [NUF2-001] | 50 | 100 | – | – | –
46 | VYIEKNDKL (listed as Homo sapiens) [ERBB3-001] | – | 83 | – | – | –
47 | VYISSLALL (listed as Homo sapiens) [PSMD14-001] | 1 | 17 | – | – | –
48 | VYKVVGNLL (listed as Homo sapiens) [IQGAP3-001] | 24 | 100 | – | – | –
49 | VYLLNSTTL (listed as Homo sapiens) [CLCN3-001] | 6 | 33 | – | – | –
50 | VYNPTPNSL (listed as Homo sapiens) [COL12A1-001] | 0 | 0 | – | – | –
51 | VYPNWAIGL (listed as Homo sapiens) [SLC6A6-001] | 1 | 17 | – | – | –
52 | VYTTMAEHF (listed as Homo sapiens) [TSPAN1-002] | 1 | 17 | – | – | –
53 | VYTTSYQQI (listed as Homo sapiens) [NFYB-001] | 7 | 50 | – | – | –
54 | YVDPVITSI (listed as Homo sapiens) [MET-001] | – | – | 67 | 42 | extremely good in vivo reactions
55 | YYKNIGLGF (listed as Homo sapiens) [RPS11-001] | 3 | 17 | – | – | –
56 | YYNAAGFNKL (listed as Homo sapiens) [UQCRB-001] | 24 | 83 | – | – | –
57 | YYYVGFAYL (listed as Homo sapiens) [EIF3L-001] | 29 | 100 | – | – | –
